# Source: patent US20090111820A1, “FUSED PYRROLIDINE 1,2,4-TRIAZOLE DERIVATIVES AS MODULATORS OF MGLUR5” (priority 2007, published 2009)
# Legend:
# [1] = biological target: T1, human mGluR5d (Homo sapiens, UniProt P41594); test: FLIPR assay, mGluR5 antagonism (intracellular calcium mobilization); type: cell-based; conditions: cells expressing human mGluR5d; fluo-3 calcium signal; read-out: FLIPR hmGluR5d
# T1 construct: expressed in transfected cells; It is kept under hygromycin B and Zeocin selection; The separate IP3 assay names GHEK cells
# Source text: Functional Assessment of mGluR5 Antagonism in Cell Lines Expressing mGluR5D
# The properties of the compounds of the invention can be analyzed using standard assays for pharmacological activity. Examples of glutamate receptor assays are well known in the art as described in for example Aramori et al., Neuron 8:757 (1992), Tanabe et al., Neuron 8:169 (1992), Miller et al., J. Neuroscience 15: 6103 (1995), Balazs, et al., J. Neurochemistry 69:151 (1997). The methodology described in these publications is incorporated herein by reference. Conveniently, the compounds of the invention can be studied by means of an assay (FLIPR) that measures the mobilization of intracellular calcium, [Ca^2+], in cells expressing mGluR5 or another assay (IP3) that measures inositol phosphate turnover.
# Cells expressing human mGluR5d as described in WO97/05252 cultured in a mixture of high glucose DMEM with Glutamax (31966-021) (500 mL), 10% dialyzed fetal bovine serum (Hyclone #SH30079.03) (56 mL), 200 μg/mL Hygromycin B (Invitrogen 45-0430, 50 mg/mL)(2.2 mL), 200 μg/mL Zeocin (Invitrogen #R250-01; 100 mg/mL)(1.1 mL) are seeded at a density of 100,000 cells per well on collagen coated clear bottom 96-well plates with black sides and cells were allowed to adhere over night before experiments. All assays are done in a buffer containing 146 mM NaCl, 5 mM KCl, 1 mM MgCl2, 1 mM CaCl2, 20 mM HEPES, 1 mg/mL glucose and 1 mg/mL BSA Fraction IV (pH 7.4). Cell cultures in the 96-well plates are loaded for 60 minutes in the above mentioned buffer containing 6 μM of the acetoxymethyl ester form of the fluorescent calcium indicator fluo-3 (Molecular Probes, Eugene, Oreg.) in 0.025% pluronic acid (a proprietary, non-ionic surfactant polyol -CAS Number 9003-11-6). Following the loading period the fluo-3buffer is removed and replaced with fresh assay buffer. FLIPR experiments are done using a laser setting of 0.700 W and a 0.4 second CCD camera shutter speed with excitation and emission wavelengths of 488 nm and 562 nm, respectively. Each experiment is initiated with 160 μl of buffer present in each well of the cell plate. A 40 μl addition from the antagonist plate was followed by a 50 μL addition from the agonist plate. A 30 minutes, in dark at 25° C., interval separates the antagonist and agonist additions. The fluorescence signal is sampled 50 times at 1-second intervals followed by 3 samples at 5-second intervals immediately after each of the two additions. Responses are measured as the difference between the peak heights of the response to agonist, less the background fluorescence within the sample period. IC50 determinations are made using a linear least squares fitting program.
# [2] = Determination of brain to plasma ratio in rat; type: in vivo; conditions: brain and plasma, female Sprague Dawley rats, read-out: Brain/Plasma Ratio of compound in Rat
# Experimental: Determination of Brain to Plasma Ratio in Rat
# Brain to plasma ratios are estimated in female Sprague Dawley rats. The compound is dissolved in water or another appropriate vehicle. For determination of brain to plasma ratio the compound is administrated as a subcutaneous, or an intravenous bolus injection, or an intravenous infusion, or an oral administration. At a predetermined time point after the administration a blood sample is taken with cardiac puncture. The rat is terminated by cutting the heart open, and the brain is immediately retained. The blood samples are collected in heparinized tubes and centrifuged within 30 minutes, in order to separate the plasma from the blood cells. The plasma is transferred to 96-well plates and stored at −20° C. until analysis. The brains are divided in half, and each half is placed in a pre-tarred tube and stored at −20° C. until analysis. Prior to the analysis, the brain samples are thawed and 3 mL/g brain tissue of distilled water is added to the tubes. The brain samples are sonicated in an ice bath until the samples are homogenized. Both brain and plasma samples are precipitated with acetonitrile. After centrifugation, the supernatant is diluted with 0.2% formic acid. Analysis is performed on a short reversed-phase HPLC column with rapid gradient elution and MSMS detection using a triple quadrupole instrument with electrospray ionisation and Selected Reaction Monitoring (SRM) acquisition. Liquid-liquid extraction may be used as an alternative sample clean-up. The samples are extracted, by shaking, to an organic solvent after addition of a suitable buffer. An aliquot of the organic layer is transferred to a new vial and evaporated to dryness under a stream of nitrogen. After reconstitution of the residuals the samples are ready for injection onto the HPLC column.
# T1 sequence (P41594 21-942 isoform P41594-3 limits assumed): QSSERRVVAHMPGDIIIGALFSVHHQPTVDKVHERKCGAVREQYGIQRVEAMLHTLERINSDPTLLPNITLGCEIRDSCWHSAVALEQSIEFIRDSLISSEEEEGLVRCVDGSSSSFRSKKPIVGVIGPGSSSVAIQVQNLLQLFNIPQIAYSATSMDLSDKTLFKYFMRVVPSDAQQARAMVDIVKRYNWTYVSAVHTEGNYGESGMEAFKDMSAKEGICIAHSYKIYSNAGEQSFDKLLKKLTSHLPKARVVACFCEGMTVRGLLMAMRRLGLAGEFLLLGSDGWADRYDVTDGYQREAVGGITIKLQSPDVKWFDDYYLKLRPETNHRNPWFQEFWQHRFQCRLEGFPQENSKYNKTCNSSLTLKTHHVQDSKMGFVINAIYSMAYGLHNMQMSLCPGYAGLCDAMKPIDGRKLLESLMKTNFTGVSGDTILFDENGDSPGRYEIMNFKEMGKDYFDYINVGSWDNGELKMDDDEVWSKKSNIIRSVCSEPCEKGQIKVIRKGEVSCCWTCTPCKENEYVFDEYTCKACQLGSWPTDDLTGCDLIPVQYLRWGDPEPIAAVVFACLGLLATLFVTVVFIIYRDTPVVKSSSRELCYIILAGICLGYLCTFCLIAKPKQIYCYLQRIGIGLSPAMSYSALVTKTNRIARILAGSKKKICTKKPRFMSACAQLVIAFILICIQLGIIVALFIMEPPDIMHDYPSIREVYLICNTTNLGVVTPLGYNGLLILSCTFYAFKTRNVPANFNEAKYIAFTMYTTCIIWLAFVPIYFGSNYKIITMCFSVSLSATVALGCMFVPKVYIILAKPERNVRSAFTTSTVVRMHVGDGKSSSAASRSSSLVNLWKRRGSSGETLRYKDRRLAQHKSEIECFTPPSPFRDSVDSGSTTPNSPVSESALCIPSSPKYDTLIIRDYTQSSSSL
SMILES,IC50 [1] [nM],Kp [2]
"Cn1c(-c2cn[nH]c(=O)c2)nnc1N1C[C@H]2C[C@H]2[C@@H]1c1cc(-c2cccc(Cl)c2)on1 [Example 13.9, 5-(5-{(1R,2R,5S)-2-[5-(3-Chlorophenyl)isoxazol-3-yl]-3-azabicyclo[3.1.0]hex-3-yl}-4-methyl-4H-1,2,4-triazol-3-yl)pyridazin-3(2H)-one]",46,
"Cn1c(-c2ccn(C)c(=O)c2)nnc1N1C[C@H]2C[C@H]2[C@@H]1c1cc(-c2cccc(Cl)c2)on1 [Example 13.8, 4-(5-{(1R,2R,5S)-2-[5-(3-Chlorophenyl)isoxazol-3-yl]-3-azabicyclo[3.1.0]hex-3-yl}-4-methyl-4H-1,2,4-triazol-3-yl)-1-methylpyridin-2(1H)-one]",51,
"Cc1cccc(-c2cc([C@H]3C[C@H]4C[C@H]4N3c3nnc(-c4ccn(C)c(=O)c4)n3C)no2)c1 [Example 13.1, 1-Methyl-4-(4-methyl-5-{(1R,3R,5R)-3-[5-(3-methylphenyl)isoxazol-3-yl]-2-azabicyclo[3.1.0]hex-2-yl}-4H-1,2,4-triazol-3-yl)pyridin-2(1H)-one]",73,0.01
"Cn1c(-c2cn[nH]c(=O)c2)nnc1N1[C@@H](c2cc(-c3cccc(Cl)c3)on2)C[C@H]2C[C@H]21 [Example 13.6, 5-(5-{(1R,3R,5R)-3-[5-(3-Chlorophenyl)isoxazol-3-yl]-2-azabicyclo[3.1.0]hex-2-yl}-4-methyl-4H-1,2,4-triazol-3-yl)pyridazin-3(2H)-one]",32,< 0.01
"Cc1cccc(-c2cc([C@H]3C[C@H]4C[C@H]4N3c3nnc(-c4cc[nH]c(=O)n4)n3C)no2)c1 [Example 13.2, 4-(4-Methyl-5-{(1R,3R,5R)-3-[5-(3-methylphenyl)isoxazol-3-yl]-2-azabicyclo[3.1.0]hex-2-yl}-4H-1,2,4-triazol-3-yl)pyrimidin-2(1H)-one]",131,
"Cn1c(-c2ccn(C)c(=O)c2)nnc1N1[C@@H](c2cc(-c3cccc(Cl)c3)on2)C[C@H]2C[C@H]21 [Example 13.4, 4-(5-{(1R,3R,5R)-3-[5-(3-Chlorophenyl)isoxazol-3-yl]-2-azabicyclo[3.1.0]hex-2-yl}-4-methyl-4H-1,2,4-triazol-3-yl)-1-methylpyridin-2(1H)-one]",39,< 0.01
"Cc1cccc(-c2cc([C@H]3C[C@H]4C[C@H]4N3c3nnc(-c4cn[nH]c(=O)c4)n3C)no2)c1 [Example 13.3, 5-(4-Methyl-5-{(1R,3R,5R)-3-[5-(3-methylphenyl)isoxazol-3-yl]-2-azabicyclo[3.1.0]hex-2-yl}-4H-1,2,4-triazol-3-yl)pyrimidin-3(2H)-one]",71,
"Cn1c(-c2ccc(C(N)=O)cc2)nnc1N1[C@@H](c2cc(-c3cccc(Cl)c3)on2)C[C@H]2C[C@H]21 [Example 13.5, 4-(5-{(1R,3R,5R)-3-[5-(3-Chlorophenyl)isoxazol-3-yl]-2-azabicyclo[3.1.0]hex-2-yl}-4-methyl-4H-1,2,4-triazol-3-yl)benzamide]",14,
